Consider 10 molecules from patent publication EP1464649A2, “Sugar derivatives comprising oxiranes or alpha,beta-unsaturated gamma-lactones, process for their preparation and their utilisation as pesticides” (Instituto Politécnico de Santarém / Escola Superior Agraria, priority 2003, dated 2004).

≈ marks a conversion by molar mass, not a printed value. Entries after “also recorded” stand apart in the source; their conditions may differ.

Data set [1] concerns adult fruit fly (D. melanogaster). Nature of the data set: Method A: topical treatment of adult fruit fly. The following applies: for LD50: Method A, topical, adult fruit flies, 24 hour mortalities; for activity against adult fruit flies: statement in words from LD50 values. The format is in vivo, Drosophila melanogaster. Here is the method:
A culture of fruit flies (D. melanogaster) was used in the production of adult flies (approx 0.22 mg) of about seven days.
Serial dilutions of the compounds were prepared in acetone, and volumes of approximately 0.2 µL were applied to the ventral surface of each insect, using a calibrated PAX 100 microapplicator and a 1 mL syringe.
The fruit flies, in groups of 5, were anaesthetised using carbon dioxide. Prior to recovery the flies were placed in a containing vial and kept at 30±1°C, for observations of mortality at 1, 2, 3 and 24 hours after treatment.
For this purpose solutions of 6 different concentrations and a control were employed in groups of 12 and 20 insects. Control mortalities were normally zero but occasionally rose to 5-10%.
(§1) Dosages used in insect treatments were based upon the amount of compound applied to each insect. For the shrimps the final concentrations of the compounds in the immersion brine were used.
(§2) The 24 hour mortalities were used to calculate the LD50/LC50 using regression analysis of the probability percent mortality (probit) against log dose/concentration.^30 This was calculated using PoloPC software (LeOra Software, Berkeley, CA, 1994).

Data set [2] has as its system glasshouse white fly (T. vaporariorum). Nature of the data set: Method G: foliar treatment of glasshouse white fly. The data set is classed as in vivo. The following applies: for efficacy against white fly: statement in words. As to the method: Seedlings of tomato plants were infested with adult white fly. Selected leaves of the tomato plants were excised and carefully trimmed to 3 leaflets without disturbing the infestation. These were placed in glass tubes containing water and the leaflets were then sprayed on both sides with a small sprayer delivering for each one 200 µL of a solution of the test compound dissolved in 30% acetone in water.
Controls were sprayed with the solvent alone.
Counts of insects on the individual leaflets were made immediately after spraying and then at 14 hours following.
Where single dose treatments were used (in the case of whitefly assays), no statistics are available and the results are expressed as percent effect.
Five compounds were tested, which were applied spraying 600 µL of each compound solution (prepared according to method G) on the leaves of tomato plants infested with a known number of adult whitefly. After 14 hours, the number of dead insects (or eventually of insects that disappeared) was counted. These assays were performed at room temperature, between 20 and 25°C.

The subject of data set [3] is brine shrimp A. salina larvae. Briefly: in vivo. The data set is classed as in vivo. The following applies: Method F, 24 hour mortalities. As to the method: (§3) Freshly hatched brine shrimps were prepared by adding aquarium brine shrimp eggs to salt water (15 g sea salt per litre water). The following day hatchlings were separated from eggs and empty egg cases, using their phototropic movement and a Pasteur pipette.
(§4) Into each of a set of small glass vials was pipetted 195 µL of brine containing 5 shrimp larvae, using a micropipette. The solution of the test compound in 5 µL acetone was added, the vial closed and kept at 30±1°C for observation.
(§5) Dead and alive shrimps were counted, at 1 and 24 hours after treatment, using a microscope. Six concentrations and a control were used with 10 shrimps treated.
(§6) A blank test was performed for comparison of the results.
as §1, §2

A further data set concerns fruit fly larvae. Briefly: Method D: topical treatment of fruit fly larvae. The format is in vivo, Drosophila melanogaster. The following applies: for toxicity for fruit fly larvae compared with adult flies: statement in words; for LD50: Method D, topical, fruit fly larvae. Here is the method: Fruit fly larvae were separated from the growing medium and second and third instars were topically treated with 0.2 µL acetone solutions of the compounds using a PAX microapplicator.
Larvae were held in padded forceps for dosing and then placed on moistened filter paper, at 30±1°C, for observation.
as §2

Data set [4] deals with house fly adults (M. domestica). Briefly: Method E: topical treatment of house fly adults. The format is in vivo, Musca domestica. The following applies: adult house flies. Here is the method:
A culture of an insecticide-susceptible strain, Cooper, was established. Three-day-old adult house flies (body weight about 1.8 mg) were anaesthetised with carbon dioxide. Using the PAX microapplicator, a volume of 1 µL of acetone solution of the test compounds was applied to the dorsal cuticle, holding the fly in padded forceps.
Groups of flies were placed into closed vials, kept at 30 ±1°C, for observation.
as §2

Another data set can be described thus: in vivo. The format is in vivo. The following applies: in vivo; Method F, brine shrimp larvae, 24 hour mortalities. Here is the method:
as §3, §4, §5, §6, §1, §2

For another data set, the system named is adult fruit flies. Briefly: Method B: second method for topical treatment of adult fruit flies. The data set is classed as in vivo, Drosophila melanogaster. The following applies: topical 1 µL acetone solution. As to the method:
Different dilutions of the compounds in acetone were prepared and applied to individual fruit flies using a Gilson piston micropipette.
Individual flies were held in padded forceps and 1 µL of acetone solution was applied. The acetone was allowed to evaporate before placing the fly into the vial for observation, kept at 30±1°C, following the standard methodology.
as §2

Molecule `COC1OC(C2CC(C)([Se]c3ccccc3)C(=O)O2)C2OC12` [Compound 6, methyl (7R)-/(7S)-2,3-anhydro-6,7-dideoxy-7-methyl-7-phenylselenyl-β-L-gulo-octofuranurono-8,5-lactone] registered an LD50 in data set [1] of 0.00015 µg/insect. The “% Control of White Fly” value in data set [2] (Concentration 1.3 µg/mL, sprayed tomato leaves, 14 hours) is recorded as 0%. The LC50 (in general, the concentration lethal to half of the exposed cells or organisms) in data set [3] came out at 125.48 mg/L (≈ 340 µM).
As for `CC1(C)OC2OC(C3CC(C)([Se]c4ccccc4)C(=O)O3)C(OCc3ccccc3)C2O1` [Compound 8, (7R)-/(7S)-3-O-Benzyl-6,7-dideoxy-1,2-O-isopropylidene-7-methyl-7-phenylselenyl-α-D-gluco-octofuranurono-8,5-lactone], the results for the LD50 in data set [1] and in data set [4] were 0.00037 µg/insect and 0.644 µg/insect, respectively. In the data set on fruit fly larvae, the “toxicity for fruit fly larvae compared with adult flies” value is on record as “less toxic for larvae than for adult flies”. The LC50 in data set [3] came to 220.41 mg/L (≈ 438 µM).
The molecule `O=[N+]([O-])NC1=NCCN1Cc1ccc(Cl)nc1` [Imidacloprid, reference compound] displayed an LD50 in data set [1] of 0.01253 µg/insect. This molecule also had an LC50 at 24 h in “in vivo” of 0.0312 mg/L (≈ 0.122 µM).
In turn, `CC1(C)O[C@H]2O[C@H]([C@H]3C=CC(=O)O3)[C@H](OCc3ccccc3)[C@H]2O1` [Compound 4, 3-O-benzyl-6,7-dideoxy-1,2-O-isopropylidene-α-D-gluco-oct-6-enefuranurono-8,5-lactone] showed an LD50 in data set [1] of 0.00012 µg/insect. Also, the “% Control of White Fly” value in data set [2] (foliar, 14 h, 2.5 ug/mL) is listed as 50%. For the same molecule, the “efficacy against white fly” value in data set [2] is listed as “show efficacy as insecticides; also recorded: promising for activity against the white fly”. The molecule also returned an LC50 in data set [3] of 358.92 mg/L (≈ 1080 µM).
Take “Methyl 2,3;5,6-Dianhydro-β-L-gulofuranoside [Compound 9]”: in data set [1], the LD50 was 0.00003 µg/insect and the “activity against adult fruit flies” value is given as “extremely active”. For the same molecule, in data set [2] (Concentration 2.5 µg/mL, sprayed tomato leaves, 14 hours), the “% Control of White Fly” value is reported as 85%. In addition, the “efficacy against white fly” value in data set [2] was “show efficacy as insecticides; also recorded: promising for activity against the white fly”. The LC50 in data set [3] was 671.50 mg/L.
Regarding `CC(=O)OC[C@H]1OC(=O)C(Br)=C[C@@H]1OC(C)=O` [Compound 5, 4,6-di-O-acetyl-2-bromo-2,3-dideoxy-D-erythro-hex-2-enone-1,5-lactone], the LD50 is recorded as 0.00016 µg/insect in data set [1], 4.75 µg/insect in the data set with fruit fly larvae and 1.065 µg/insect in data set [4]. Further, the “toxicity for fruit fly larvae compared with adult flies” value in the data set on fruit fly larvae is “less toxic for larvae than for adult flies”. In data set [3], the LC50 amounted to 38.36 mg/L (≈ 125 µM).
In the case of `CC1=C[C@H]([C@H]2O[C@@H]3OC(C)(C)O[C@@H]3[C@H]2OCc2ccccc2)OC1=O` [Compound 1, 3-O-benzyl-6,7-dideoxy-1,2-O-isopropylidene-7-methyl-α-D-gluco-oct-6-enefuranurono-8,5-lactone], in data set [1], the LD50 stood at 0.00002 µg/insect and the “activity against adult fruit flies” value is recorded as “extremely active”. The molecule also had an LC50 in data set [3] of 100.62 mg/L (≈ 290 µM).
`CC1=C[C@H]([C@H]2O[C@@H]3OC(C)(C)O[C@@H]3[C@@H]2OCc2ccccc2)OC1=O` [Compound 2, 3-O-benzyl-6,7-dideoxy-1,2-O-isopropylidene-7-methyl-α-D-alo-oct-6-enefuranurono-8,5-lactone]: the “activity against adult fruit flies” value in data set [1] is “extremely active”. Moreover, in data set [3], the LC50 was 64.30 mg/L (≈ 186 µM). The molecule also displayed an LD50 in the data set with adult fruit flies of 0.00398 µg/insect.
For “(7R)-/(7S)-3,6,7-Trideoxy-1,2-O-isopropylidene-7-methyl-7-phenylselenyl-α-D-ribo-octofuranurono-8,5-lactone [Compound 7]”, the LD50 in data set [1] worked out at 0.0002 µg/insect; in the data set on fruit fly larvae it was 0.968 µg/insect. Further, the “% Control of White Fly” value in data set [2] (Concentration 4.8 µg/mL, sprayed tomato leaves, 14 hours) came to 0%. The same molecule came in with a median lethal concentration (LC50) in data set [3] of 261.04 mg/L.
On to `CC1(C)O[C@H]2O[C@H]([C@H]3C=CC(=O)O3)[C@@H](OCc3ccccc3)[C@H]2O1` [Compound 3, 3-O-benzyl-6,7-dideoxy-1,2-O-isopropylidene-α-D-alo-oct-6-enefuranurono-8,5-lactone], for which, in data set [1], the LD50 was 5.02x10^-6 µg/insect and the “activity against adult fruit flies” value is “extremely active”. Moreover, the “% Control of White Fly” value in data set [2] (foliar, 14 h, 1.3 ug/mL) is on record as 0%. The median lethal concentration (LC50) in data set [3] is 144.71 mg/L (≈ 435 µM).
